This assay relates to BDF1 mice, Adenocarcinoma 755 s.c., tumor weight T/C. Briefly: NCI In Vivo Anticancer Drug Screen. Data for tumor model Adenocarcinoma 755 (subcutaneous) in B6D2F1 (BDF1) mice. Conditions: endpoint: mean tumor weight, higher = larger tumour. The procedure, abridged: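 In vivo antitumor screen on a transplantable tumor line. Result equals the measure in compound-treated animals divided by the same measure in vehicle controls.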

Setting [1] is: dose: 250.0 mg/kg/injection, schedule: Q01DX011 (ip), vehicle: methylcellulose (MC).

Molecules are shown by their SMILES. “And” between values parts separate entries of the source, which are not always exact repeats. Identical values can stand only once.

`O=C(OCC1OC(n2cnc3c(=S)nc[nH]c32)C(OC(=O)c2ccccc2)C1OC(=O)c1ccccc1)c1ccccc1` (stereo unspecified): the T/C (as a rule, the result in the treated group divided by that in the control group, in per cent) (dose: 8.0 mg/kg/injection, schedule: Q01DX011 (ip), vehicle: carboxymethylcellulose (CMC)) was 98 % of control; the T/C (dose: 15.0 mg/kg/injection, schedule: Q01DX011 (ip), vehicle: carboxymethylcellulose (CMC)) was 91 % of control; the T/C (dose: 31.0 mg/kg/injection, schedule: Q01DX011 (ip), vehicle: carboxymethylcellulose (CMC)) was 99 % of control; the T/C (dose: 32.0 mg/kg/injection, schedule: Q01DX011 (ip), vehicle: carboxymethylcellulose (CMC)) is 53 % of control; the T/C (dose: 50.0 mg/kg/injection, schedule: Q01DX011 (ip), vehicle: carboxymethylcellulose (CMC)) was 53 % of control; the T/C (dose: 100.0 mg/kg/injection, schedule: Q01DX011 (ip), vehicle: carboxymethylcellulose (CMC)) was 7 % of control. The T/C reads like this: (dose: 125.0 mg/kg/injection, schedule: Q01DX011 (ip), vehicle: carboxymethylcellulose (CMC)) 2 % of control and 6 % of control and 12 % of control; (dose: 250.0 mg/kg/injection, schedule: Q01DX011 (ip), vehicle: carboxymethylcellulose (CMC)) 1 % of control.
For the compound `COc1ccc(-c2c(C)c(C(=O)O)nc(-c3ccc4c(O)c(OC)c5c(c4n3)=NC(C)(C)N=5)c2N)c(O)c1OC`, the T/C is, setting by setting: (dose: 2.5 mg/kg/injection, schedule: Q01DX011 (ip), vehicle: water) 26 % of control; (dose: 2.5 mg/kg/injection, schedule: Q01DX011 (oral), vehicle: water) 6 % of control; (dose: 2.5 mg/kg/injection, schedule: Q## X006 (ip), vehicle: water) 59 % of control; (dose: 2.5 mg/kg/injection, schedule: Q## X006 (oral), vehicle: water) 43 % of control; (dose: 2.5 mg/kg/injection, schedule: Q#A X022 (ip), vehicle: water) 51 % of control; (dose: 5.0 mg/kg/injection, schedule: Q01DX005 (iv), vehicle: water) 58 % of control. For the same compound, the T/C (dose: 5.0 mg/kg/injection, schedule: Q01DX006 (ip), vehicle: water) is 64 % of control; the T/C (dose: 5.0 mg/kg/injection, schedule: Q01DX011 (im), vehicle: water) is 64 % of control; the T/C (dose: 5.0 mg/kg/injection, schedule: Q01DX011 (ip), vehicle: water) is 5 % of control; the T/C (dose: 5.0 mg/kg/injection, schedule: Q01DX011 (oral), vehicle: water) was 2 % of control; the T/C (dose: 5.0 mg/kg/injection, schedule: Q01DX011 (sc), vehicle: water) was 13 % of control; the T/C (dose: 5.0 mg/kg/injection, schedule: Q## X006 (ip), vehicle: water) was 57 % of control. The T/C was 79 % of control (dose: 5.0 mg/kg/injection, schedule: Q## X006 (oral), vehicle: water); 21 % of control (dose: 5.0 mg/kg/injection, schedule: Q#A X022 (ip), vehicle: water); 63 % of control (dose: 7.5 mg/kg/injection, schedule: Q01DX006 (ip), vehicle: water); 9 % of control (dose: 7.5 mg/kg/injection, schedule: Q#A X022 (ip), vehicle: water); 50 % of control (dose: 8.0 mg/kg/injection, schedule: Q01DX011 (ip), vehicle: water); 26 % of control (dose: 10.0 mg/kg/injection, schedule: Q01DX005 (iv), vehicle: water). The T/C (dose: 10.0 mg/kg/injection, schedule: Q01DX006 (ip), vehicle: water) is 28 % of control; the T/C (dose: 10.0 mg/kg/injection, schedule: Q01DX011 (im), vehicle: water) is 13 % of control; the T/C (dose: 10.0 mg/kg/injection, schedule: Q01DX011 (sc), vehicle: water) was 15 % of control; the T/C (dose: 10.0 mg/kg/injection, schedule: Q## X006 (ip), vehicle: water) was 19 % of control; the T/C (dose: 10.0 mg/kg/injection, schedule: Q## X006 (oral), vehicle: water) is 44 % of control; the T/C (dose: 12.0 mg/kg/injection, schedule: Q03DX004 (ip), vehicle: water) is 62 % of control. For the same compound, the T/C by setting is: (dose: 13.0 mg/kg/injection, schedule: Q01DX011 (ip), vehicle: water) 10 % of control; (dose: 15.0 mg/kg/injection, schedule: Q01DX005 (iv), vehicle: water) 6 % of control; (dose: 15.0 mg/kg/injection, schedule: Q01DX011 (im), vehicle: water) 10 % of control; (dose: 15.0 mg/kg/injection, schedule: Q01DX011 (sc), vehicle: water) 4 % of control; (dose: 18.0 mg/kg/injection, schedule: Q03DX004 (ip), vehicle: water) 38 % of control; (dose: 20.0 mg/kg/injection, schedule: Q01DX011 (ip), vehicle: water) 6 % of control. The T/C was 39 % of control (dose: 20.0 mg/kg/injection, schedule: Q## X006 (ip), vehicle: water); 20 % of control (dose: 20.0 mg/kg/injection, schedule: Q## X006 (oral), vehicle: water); 48 % of control (dose: 22.0 mg/kg/injection, schedule: Q07DX002 (ip), vehicle: water); 2 % of control (dose: 22.5 mg/kg/injection, schedule: Q01DX005 (iv), vehicle: water); 1 % of control (dose: 22.5 mg/kg/injection, schedule: Q01DX011 (im), vehicle: water); 4 % of control (dose: 27.0 mg/kg/injection, schedule: Q03DX004 (ip), vehicle: water). In addition, the T/C by setting is: (dose: 34.0 mg/kg/injection, schedule: Q01DX001 (ip), vehicle: water) 45 % of control and 50 % of control; (dose: 35.0 mg/kg/injection, schedule: Q07DX002 (ip), vehicle: water) 55 % of control; (dose: 44.0 mg/kg/injection, schedule: Q01DX001 (ip), vehicle: water) 52 % of control and 57 % of control; (dose: 50.0 mg/kg/injection, schedule: Q07DX002 (ip), vehicle: water) 8 % of control; (dose: 67.0 mg/kg/injection, schedule: Q01DX001 (ip), vehicle: water) 18 % of control.
On to `O=c1[nH]c(=O)c2nc(Br)n(C3OC(CO)C(O)C3O)c2[nH]1` (stereo unspecified), for which the T/C was 119 % of control (dose: 30.0 mg/kg/injection, schedule: Q01DX011 (ip), vehicle: carboxymethylcellulose (CMC)); 105 % of control (dose: 60.0 mg/kg/injection, schedule: Q01DX011 (ip), vehicle: carboxymethylcellulose (CMC)); 68 % of control (dose: 120.0 mg/kg/injection, schedule: Q01DX011 (ip), vehicle: carboxymethylcellulose (CMC)); 86 % of control (dose: 240.0 mg/kg/injection, schedule: Q01DX011 (ip), vehicle: carboxymethylcellulose (CMC)).
As for `NS(=O)(=O)c1ncnc2nc[nH]c12`, the T/C runs as follows: (dose: 3.1 mg/kg/injection, schedule: Q01DX011 (ip), vehicle: methylcellulose (MC)) 105 % of control; (dose: 6.2 mg/kg/injection, schedule: Q01DX011 (ip), vehicle: methylcellulose (MC)) 78 % of control; (dose: 12.5 mg/kg/injection, schedule: Q01DX011 (ip), vehicle: methylcellulose (MC)) 15 % of control; (dose: 25.0 mg/kg/injection, schedule: Q01DX011 (ip), vehicle: methylcellulose (MC)) 3 % of control and 9 % of control.
Consider `c1ccc2cc(-c3cc4ccccc4s3)ccc2c1`, for which the T/C (dose: 100.0 mg/kg/injection, schedule: Q01DX011 (ip), vehicle: saline) was 70 % of control; the T/C (dose: 200.0 mg/kg/injection, schedule: Q01DX011 (ip), vehicle: saline) was 59 % of control; the T/C (dose: 400.0 mg/kg/injection, schedule: Q01DX011 (ip), vehicle: saline) was 49 % of control; the T/C (dose: 800.0 mg/kg/injection, schedule: Q01DX011 (ip), vehicle: saline) was 42 % of control.
Turning to `CSc1ncc(Br)c(Nc2ccc(C)cc2)n1`, the T/C by setting is: (dose: 15.0 mg/kg/injection, schedule: Q01DX011 (ip), vehicle: methylcellulose (MC)) 75 % of control; (dose: 31.0 mg/kg/injection, schedule: Q01DX011 (ip), vehicle: methylcellulose (MC)) 74 % of control; (dose: 62.0 mg/kg/injection, schedule: Q01DX011 (ip), vehicle: methylcellulose (MC)) 75 % of control; (dose: 125.0 mg/kg/injection, schedule: Q01DX011 (ip), vehicle: methylcellulose (MC)) 92 % of control; under setting [1], 68 % of control.
With `Cc1ccccc1N(C=O)c1ccccc1C`, the T/C by setting is: under setting [1], 108 % of control; (dose: 500.0 mg/kg/injection, schedule: Q01DX011 (ip), vehicle: methylcellulose (MC)) 120 % of control; (dose: 1000.0 mg/kg/injection, schedule: Q01DX011 (ip), vehicle: methylcellulose (MC)) 110 % of control.
On to `CCC(=O)O[C@H]1CC[C@H]2[C@@H]3CCC4=CC(=O)CC[C@]4(C)[C@H]3[C@@H](O)C[C@]12C`, for which the T/C (dose: 50.0 mg/kg/injection, schedule: Q01DX011 (sc), vehicle: steriod suspending solution) was 121 % of control and the T/C (dose: 200.0 mg/kg/injection, schedule: Q01DX011 (sc), vehicle: steriod suspending solution) is 101 % of control.

Values taken from PubChem BioAssay AID180 (DTP/NCI, 2004).
